The record followed here is patent US20220411439A1, “POLYMORPHS OF A MACROCYCLIC KINASE INHIBITOR” (TURNING POINT THERAPEUTICS, INC., priority 2019, published 2022).

What is called IC75 is the point of the concentration-response curve where the effect stands at 75%. The IC90 is the concentration at which the effect reaches the 90% level. A low value points to an effect from little substance.

In the experiment the target is T1, Ba/F3 KIF5B-RET (Homo sapiens, UniProt P07949, cells depend on it, form not given).
T1 construct: IC50 (nM); other: Experiment 1; other: Experiment 2; fused on or other part: P33176 (Kinesin-1 heavy chain)
The experiment in a line: Compound I anti-cell proliferation comparison (FIG. 5A, 5B). In kind it is cell-based. The note with it: for GI50: read-out: IC50 (the source's name). An excerpt:
The KIF5B-RET gene was synthesized at GenScript and cloned into pCDH-CMV-MCS-EF1-Puro plasmid (System Biosciences, Inc). KIF5B-RET point mutation V804M and G810C were generated at GenScript by PCR and confirmed by sequencing. Ba/F3-KIF5B-RET wild type and mutant were generated by transducing Ba/F3 cells with lentivirus containing KIF5B-RET wide type or mutant. Stable cell lines were selected by puromycin treatment, followed by IL-3 withdrawal. Briefly, 5×10^6 Ba/F3 cells were transduced with lentivirus supernatant in the presence of 8 μg/mL protamine sulfate. The transduced cells were subsequently selected with 1 μg/mL puromycin in the presence of IL3-containing medium RPMI1640, plus 10% FBS. After 10-12 days of selection, the surviving cells were further selected for […] independent growth.
Two thousand cells per well were seeded in 384 well white plate for 24 hrs, and then treated with compounds for 72 hours (37° C., 5% CO2). Cell proliferation was measured using CellTiter-Glo luciferase-based ATP detection assay (Promega) following the manufactures's protocol. IC50 determinations were performed using GraphPad Prism software (GraphPad, Inc., San Diego, Calif.).

Each structure is given as a SMILES string. Where two headings read alike, the source gives them in different places.

T1 sequence (P07949 whole entry G810C, form open, the tested form may be a part): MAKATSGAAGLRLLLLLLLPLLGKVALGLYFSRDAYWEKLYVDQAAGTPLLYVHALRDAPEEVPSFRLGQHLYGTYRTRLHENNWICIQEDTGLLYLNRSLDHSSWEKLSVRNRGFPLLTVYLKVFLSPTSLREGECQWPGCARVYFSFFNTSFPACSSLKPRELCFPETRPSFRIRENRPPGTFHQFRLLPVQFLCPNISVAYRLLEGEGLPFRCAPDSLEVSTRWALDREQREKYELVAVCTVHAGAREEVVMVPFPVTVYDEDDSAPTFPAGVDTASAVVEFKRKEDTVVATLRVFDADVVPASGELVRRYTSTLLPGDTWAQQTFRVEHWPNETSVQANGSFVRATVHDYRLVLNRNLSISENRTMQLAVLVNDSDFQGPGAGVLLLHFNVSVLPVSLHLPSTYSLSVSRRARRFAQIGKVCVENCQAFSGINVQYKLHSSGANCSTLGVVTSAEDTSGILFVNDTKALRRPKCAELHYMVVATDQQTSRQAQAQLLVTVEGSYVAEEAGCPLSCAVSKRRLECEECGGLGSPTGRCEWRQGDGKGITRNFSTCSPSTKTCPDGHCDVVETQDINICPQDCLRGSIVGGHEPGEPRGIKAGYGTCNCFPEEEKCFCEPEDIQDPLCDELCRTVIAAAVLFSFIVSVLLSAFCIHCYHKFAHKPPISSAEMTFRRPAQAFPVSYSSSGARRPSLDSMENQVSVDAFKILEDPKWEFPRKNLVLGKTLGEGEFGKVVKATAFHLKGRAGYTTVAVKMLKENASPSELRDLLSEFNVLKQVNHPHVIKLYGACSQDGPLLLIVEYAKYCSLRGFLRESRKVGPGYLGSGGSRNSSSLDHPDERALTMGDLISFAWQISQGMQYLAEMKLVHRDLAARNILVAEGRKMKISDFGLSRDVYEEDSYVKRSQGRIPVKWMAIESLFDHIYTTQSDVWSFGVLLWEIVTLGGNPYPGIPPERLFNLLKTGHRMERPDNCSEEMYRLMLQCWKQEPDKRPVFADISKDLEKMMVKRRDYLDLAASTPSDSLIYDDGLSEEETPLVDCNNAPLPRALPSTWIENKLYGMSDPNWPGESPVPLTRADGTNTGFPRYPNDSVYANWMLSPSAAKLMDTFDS

In the case of `COc1ccc(CN2C3CC2CN(c2ccc(-c4cc(OCC(C)(C)O)cn5ncc(C#N)c45)cn2)C3)cn1` [LOXO-292], under “Experiment 1”, the “IC75” value was 1.021 µM, the 90% effect concentration (IC90) came to 3.45 µM and the GI50 is 0.301 µM. For the same molecule, where the note is “Experiment 2”, the “IC75” value worked out at 0.7914 µM, the IC90 stood at 2.37 µM and the GI50 was 0.364 µM.
